Data on six compounds can be found in the NIST ThermoML archive (doi:10.1016/j.jct.2013.08.030).

The conditions of data set [1]: 101.33 kPa, Liquid, Vibrating tube method.
Data set [2] in a line: activity coefficient (dimensionless); of the first substance listed, at infinite dilution; xn = mol fraction of the nth substance listed. Particulars: 101 kPa, Liquid, Chromatography, x1 = 0.

Numbers after ± are expanded uncertainties.

By mass density is commonly meant mass per unit of volume. With `CCCC[N+]1(C)CCOCC1.N#C[C-](C#N)C#N` [4-butyl-4-methylmorpholinium tricyanomethanide], the mass density amounted to 1073.6 ± 2.2 kg/m3 in data set [1] (288.15 K); 1067.03 ± 2.2 kg/m3 in data set [1] (298.15 K); 1060.79 ± 2.2 kg/m3 in data set [1] (308.15 K); 1054.69 ± 2.2 kg/m3 in data set [1] (318.15 K); 1048.61 ± 2.1 kg/m3 in data set [1] (328.15 K); 1042.61 ± 2.1 kg/m3 in data set [1] (338.15 K). Moreover, the mass density is on record as 1036.67 ± 2.1 kg/m3 in data set [1] (348.15 K), 1030.77 ± 2.1 kg/m3 in data set [1] (358.15 K) and 1024.3 ± 2.1 kg/m3 in data set [1] (368.15 K).
For `C=Cc1ccccc1` [styrene] + CCCC[N+]1(C)CCOCC1.N#C[C-](C#N)C#N, the activity coefficient was 1.82 ± 0.12 in data set [2] (318.15 K); 1.86 ± 0.13 in data set [2] (328.15 K); 1.9 ± 0.13 in data set [2] (338.15 K); 1.93 ± 0.13 in data set [2] (348.15 K); 1.96 ± 0.13 in data set [2] (358.15 K); 1.99 ± 0.14 in data set [2] (368.15 K).
Regarding `C1CCOC1` [tetrahydrofuran] + CCCC[N+]1(C)CCOCC1.N#C[C-](C#N)C#N, the activity coefficient was 1.12 ± 0.07 in data set [2] (318.15 K); 1.15 ± 0.07 in data set [2] (328.15 K); 1.17 ± 0.07 in data set [2] (338.15 K); 1.18 ± 0.08 in data set [2] (348.15 K); 1.21 ± 0.08 in data set [2] (358.15 K); 1.22 ± 0.08 in data set [2] (368.15 K).
Consider `c1ccsc1` [thiophene] + CCCC[N+]1(C)CCOCC1.N#C[C-](C#N)C#N, for which the activity coefficient in data set [2] (318.15 K) came out at 1.01 ± 0.06; in data set [2] (328.15 K), 1.04 ± 0.07; in data set [2] (338.15 K), 1.06 ± 0.07; in data set [2] (348.15 K) it was 1.08 ± 0.07; in data set [2] (358.15 K) it was 1.1 ± 0.07; in data set [2] (368.15 K) it was 1.12 ± 0.07.
With `Cc1ccccc1` [toluene] + CCCC[N+]1(C)CCOCC1.N#C[C-](C#N)C#N, the activity coefficient was found to be 2.3 ± 0.16 in data set [2] (318.15 K); 2.33 ± 0.16 in data set [2] (328.15 K); 2.36 ± 0.16 in data set [2] (338.15 K); 2.38 ± 0.16 in data set [2] (348.15 K); 2.41 ± 0.16 in data set [2] (358.15 K); 2.43 ± 0.17 in data set [2] (368.15 K).
Consider `O` [water] + CCCC[N+]1(C)CCOCC1.N#C[C-](C#N)C#N, for which the activity coefficient in data set [2] (318.15 K) worked out at 1.03 ± 0.06; in data set [2] (328.15 K), 0.971 ± 0.061; in data set [2] (338.15 K), 0.916 ± 0.058; in data set [2] (348.15 K) it was 0.86 ± 0.055; in data set [2] (358.15 K), 0.819 ± 0.053; in data set [2] (368.15 K), 0.78 ± 0.051.
